Measured values taken from publication PMC5065099 (Chemical biology & drug design, 2016).
Like-named read-outs stand apart in the source and are kept apart here.

How the values were obtained:
AQP1 [1] = target: T1, AQP1 (Homo sapiens, UniProt P29972); type: biochemical
T1 sequence (P29972 1-269): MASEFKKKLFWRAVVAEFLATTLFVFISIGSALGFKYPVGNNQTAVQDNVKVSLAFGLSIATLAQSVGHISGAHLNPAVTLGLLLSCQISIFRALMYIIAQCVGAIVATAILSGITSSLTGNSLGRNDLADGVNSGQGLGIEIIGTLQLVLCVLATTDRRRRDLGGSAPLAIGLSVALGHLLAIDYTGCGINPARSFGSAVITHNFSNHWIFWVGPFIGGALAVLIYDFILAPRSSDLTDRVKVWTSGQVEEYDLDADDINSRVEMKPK

AQP1 [2] = conditions: Xenopus oocytes; cited from earlier work

SMILES | reduction in water transport (inhibitory action) (AQP1 [1]; hypotonic shock, compounds at final 75 μM, HgCl2 50 μM) | inhibition of AQP1 water transport (AQP1 [2]) | reduction in water transport (inhibitory action) (AQP1 [1])
[Cl][Hg][Cl] [HgCl2, mercuric chloride] | highly sensitive | – | –
CC(=O)Nc1nnc(S(N)(=O)=O)s1 [acetazolamide] | – | no inhibition | –
CC[N+](CC)(CC)CC [TEA, tetraethylammonium] | – | no inhibition | ineffective
